Experimental data reported in ChEMBL document CHEMBL4382251, “A Pair of Enantiomeric Bis- seco-abietane Diterpenoids from Cryptomeria fortunei” (J Nat Prod, 2018).

Columns and labels:
Type in all cases: functional, cell-based
SGC-7901 = test: Antiproliferative activity against human SGC7901 cells after 72 hrs by sulforhodamine B assay; conditions: SGC-7901, 72 h
HL-60 = test: Antiproliferative activity against human HL60 cells after 72 hrs by CCK8 assay; conditions: HL-60, 72 h
A549 = test: Antiproliferative activity against human A549 cells after 72 hrs by sulforhodamine B assay; conditions: A549, 72 h

| IC50 (SGC-7901) | IC50 (HL-60) | IC50 (A549) | SMILES |
| --- | --- | --- | --- |
| > 100 µM | > 100 µM | > 100 µM | Cc1ccc(/C=C(\C(=O)O)C(C)C)c2c1CC[C@@H](C(C)(C)O)OC2=O |
| 36.7 µM | 17.2 µM | 28.9 µM | CC(=O)Oc1cc2c(CC[C@H]3OC(C)(C)OC3(C)C)c(C)ccc2cc1C(C)C |
| 34.4 µM | 20.8 µM | 25.5 µM | CC(=O)Oc1cc2c(CCC=C(C)C)c(C)ccc2cc1C(C)C |
| 31.7 µM | 45.5 µM | 26.2 µM | Cc1ccc2cc(C(C)C)c(O)cc2c1CC[C@@H]1OC(C)(C)OC1(C)C |
| 88.9 µM | 16 µM | 68.5 µM | CC(=O)Oc1cc2c(CC[C@@H]3OC(C)(C)OC3(C)C)c(C)ccc2cc1C(C)C |
| > 100 µM | > 100 µM | > 100 µM | COc1cc2c(cc1C(C)C)C(=O)C=C1C(C)(C)CCCC12C (single isomer, unassigned) |
| 47.5 µM | 41.2 µM | 48.6 µM | CC(=O)Oc1cc2c(CC[C@@H](O)C(C)(C)O)c(C)ccc2cc1C(C)C |
| 45.8 µM | 21.7 µM | 50.5 µM | CC(=O)Oc1cc2c(CC[C@H](O)C(C)(C)O)c(C)ccc2cc1C(C)C |
| 33.1 µM | 49.4 µM | 23.5 µM | Cc1ccc2cc(C(C)C)c(O)cc2c1CC[C@H]1OC(C)(C)OC1(C)C |
| 22.9 µM | 25.7 µM | 26.9 µM | CC(=O)Oc1cc2c(cc1C(C)C)C(=O)C=C1C(C)(C)CCCC12C (single isomer, unassigned) |
| > 100 µM | > 100 µM | > 100 µM | Cc1ccc(/C=C(\C(=O)O)C(C)C)c2c1CC[C@H](C(C)(C)O)OC2=O |
